What was measured:
[1] = system: U-Grafts (human ECFCs + MSCs); assay: U-Graft vascularization after subcutaneous implantation into treated nude mice; assay type: in vivo; set-up: number of perfused vessels at day 7 in U-grafts: dose or concentration left out as unconfirmed; settings: for U-Graft vascularization / microvessel density compared with control: U-Grafts in treated mice, day 7
Description: (§1) Photopolymerizable methacrylated gelatin (GelMA) hydrogel was synthesized as previously described (Chen, et al. Adv. Funct. Mater. 22: 2027-2039 (2012)). GelMA prepolymer solution was prepared in PBS at 80° C. (5 w/v % final) with photoinitiator Irgacure 2959 (0.5 w/v %; CIBA Chemicals), and then allowed to cool down to 37° C. in a water bath. ECFCs and MSCs (4×10^5 total; 1:1 ratio) were suspended in 200 μL of GelMA solution and the mixture was polymerized by exposure to 7.5 mW/cm^2 UV light for 15 s at 37° C. Polymerized cell-laden constructs were referred to as unassembled grafts or U-Grafts. Alternatively, on indicated experiments, U-Grafts were constructed with ice-cold Phenol Red-free Matrigel (BD Bioscience). Assembled grafts or A-Grafts were constructed by culturing U-Grafts in vitro for 7 days using EGM2 with […]. A-Grafts contained easily observable, fully-assembled vascular networks. Both, U-Grafts and A-Grafts were subcutaneously implanted into back of 6-week-old male athymic nu/nu mice for engraftment studies. On specified experiments, DsRed-labeled ECFCs were used to visualize the formation of assembled vascular networks in A-Grafts. […]
(§2) Microvessel density was reported as the average number of erythrocyte-filled vessels (vessels/mm^2) in H&E-stained sections from the middle of the implants as previously described (Melero-Martin, et al. Circ. Res. 103:194-202 (2008)). The entire area of each section was analyzed. On specified experiments, human-specific microvessel density was quantified by evaluation of slides immunostained for human-specific CD31 (h-CD31). Perfused microvessel density was measured by injection of FITC-labeled lectins (UEA-1 or Iso-B4) before euthanizing graft-bearing mice, followed by staining of lectin-labeled vessels with anti-UEA-1 or anti-FITC antibodies. […]
[…] Neutrophil recruitment at day 2 and graft vascularization at day 7 were measured as described before. […]

neutrophils [2] = assay: Neutrophil recruitment into implanted U-Grafts at day 2 (flow cytometry); assay type: in vivo, nude mice; settings: 7.5 mg/kg intraperitoneally daily
Description: (§3) Photopolymerizable methacrylated gelatin (GelMA) hydrogel was synthesized as previously described (Chen, et al. Adv. Funct. Mater. 22: 2027-2039 (2012)). GelMA prepolymer solution was prepared in PBS at 80° C. (5 w/v % final) with photoinitiator Irgacure 2959 (0.5 w/v %; CIBA Chemicals), and then allowed to cool down to 37° C. in a water bath. ECFCs and MSCs (4×10^5 total; 1:1 ratio) were suspended in 200 μL of GelMA solution and the mixture was polymerized by exposure to 7.5 mW/cm^2 UV light for 15 s at 37° C. Polymerized cell-laden constructs were referred to as unassembled grafts or U-Grafts. Alternatively, on indicated experiments, U-Grafts were constructed with ice-cold Phenol Red-free Matrigel (BD Bioscience). […]
(§4) Grafts were removed from euthanized mice and cells were retrieved by enzymatic (1 mg/mL collagenase and 2.5 U/mL dispase) digestion for 1 h at 37° C. […] Retrieved cells were also stained for flow cytometry and analyzed using a Guava easyCyte 6HT/2L flow cytometer (Millipore Corporation, Billerica, Mass.) and FlowJo software (Tree Star Inc., Ashland, Oreg.). […] In indicated experiments, retrieved cells were sorted into mCD45+/mLy6G+(neutrophils) and mCD45+/mLy6G−cells by fluorescence-activated cell sorting (FACS) using a FACSAria II 5-LASER sorter system (BD Bioscience). Sorted cells were analyzed immediately for gene expression by qPCR. […]

CXCR2 = biological target: T1, CXCR2 (Homo sapiens, UniProt P25025); settings: in vitro and in vivo, previous studies; cited from earlier work
T1 sequence (P25025 1-360): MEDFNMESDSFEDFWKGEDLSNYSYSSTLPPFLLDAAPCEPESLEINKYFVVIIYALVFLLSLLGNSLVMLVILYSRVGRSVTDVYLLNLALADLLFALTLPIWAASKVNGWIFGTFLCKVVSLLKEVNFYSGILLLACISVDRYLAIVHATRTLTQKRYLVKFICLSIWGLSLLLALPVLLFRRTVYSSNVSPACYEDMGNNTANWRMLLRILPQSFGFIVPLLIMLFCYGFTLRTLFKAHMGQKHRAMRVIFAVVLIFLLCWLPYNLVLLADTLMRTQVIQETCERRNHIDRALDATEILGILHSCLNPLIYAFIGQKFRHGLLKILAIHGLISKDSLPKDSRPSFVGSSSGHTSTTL

[3] = system: A-Grafts (assembled human vascular networks); assay: A-Graft revascularization after implantation into nude mice; assay type: in vivo
Description: as §3, §2

neutrophils [4] = assay: Neutrophil recruitment plug assay; assay type: in vivo, nu/nu mice; settings: Matrigel plugs containing CM, day 2
Description: Concentrated CM (50 μL) was mixed with 200-μL of Matrigel and injected subcutaneously into nu/nu mice. After 2 days, plugs were explanted and infiltrated cells were retrieved by enzymatic digestion and subjected to flow cytometric analysis. Concentrated basal media (basal-M: EBM-2, 5% FBS) served as control. In indicated experiments, neutralizing antibodies against IL6, CXCL1 or CXCL8 (5 μg/antibody/plug) were added to concentrated CM 30 min prior to implantation. Individual neutralizing antibodies and the combination of three were compared.

neutrophils [5] = assay: Neutrophil recruitment into implanted A-Grafts at day 2 (flow cytometry); assay type: in vivo, nude mice
Description: as §3, §4

[6] = system: m-Islets endogenous gfp+ microvessels; assay: Vascular sprouting of m-Islets embedded in hydrogel in vitro; assay type: cell-based, mouse; settings: 7 days in vitro
From the text: In order to develop an interface for the engraftment of islets, we embedded isolated m-Islets in our hydrogel in the presence or absence of DAPT (a γ-secretase inhibitor) and examined the effect on the vasculature of islets for 7 days. […] This is consistent with previous data in which transiently blocking Notch enhanced the revascularization potential of A-grafts (FIG. 14) (52). We also examined the effect of unassembled DsRed-ECFCs (FIG. 19B). […] Moreover, the newly formed ECFC-lined vessels (DsRed+) interacted with the gfp+ vasculature of the m-Islets, and this interconnectivity was enhanced in the presence of DAPT (FIG. 19B).

CXCL1, CXCL8, and IL6 = assay: Human cytokine protein array of conditioned media from A-Grafts; assay type: cell-based; settings: A-Grafts exposed for 24 h
Description: as §1
The presence of selected cytokines was evaluated in samples of CM with human cytokine protein arrays (R&D Systems Inc.) according to the manufacturer's instructions. […]

| SMILES | U-Graft vascularization / microvessel density compared with control [1] | number of perfused vessels at day 7 in U-grafts ([1]; mice treated daily, intraperitoneal) | neutrophil presence in implanted U-Grafts (neutrophils [2]) | neutrophil chemotaxis in response to CXCL8 (CXCR2) | perivascular coverage (α-SMA+ cells) of human vessels in A-Grafts ([3]; day 7, A-Grafts treated 24 h before implantation) | perfused microvessel networks in A-Grafts ([3]; day 7 in vivo, compared with untreated / basal-M A-Grafts) | neutrophil recruitment into subcutaneous plugs (neutrophils [4]) | neutrophils in A-Grafts compared with control (neutrophils [5]) | sprouting activity of endogenous gfp+ microvessels (number and length of sprouts) ([6]; m-Islets in hydrogel, vs untreated islets) | interconnectivity between ECFC-lined vessels (DsRed+) and m-Islets vasculature (gfp+) ([6]; m-Islets with unassembled DsRed-ECFCs in hydrogel) | expression of cytokines in conditioned media of A-Grafts (CXCL1, CXCL8, and IL6) |
| --- | --- | --- | --- | --- | --- | --- | --- | --- | --- | --- | --- |
| NC(=O)c1ccc(-c2nc(-c3ccccn3)c(-c3ccc4c(c3)OCO4)[nH]2)cc1 [SB432542] | completely abrogated | insignificant |  |  |  |  |  |  |  |  |  |
| O=C(Nc1ccc([N+](=O)[O-])cc1O)Nc1ccccc1Br [SB225002] | significantly lower |  | significantly impaired | effectively inhibits |  |  |  |  |  |  |  |
| C[C@H](NC(=O)Cc1cc(F)cc(F)c1)C(=O)N[C@H](C(=O)OC(C)(C)C)c1ccccc1 [DAPT, N—[N-(3,5-Difluorophenylacetyl-L-alanyl)]-S-phenylglycine t-Butyl ester] |  |  |  |  | did not compromise proper perivascular coverage | more extensive networks of perfused microvessels | recruited significantly more neutrophils | significantly more | significantly higher | enhanced | reactivated the expression of several cytokines |
